Results taken from patent US10259810B2, “N-sulfonylated pyrazolo[3,4-b]pyridin-6-carboxamides and method of use” (AbbVie S.à.r.l., priority 2015, dated 2019).
Where two headings read alike, the source gives them in different places.

How the values were obtained:
Assay type in all cases: cell-based
CFTR ΔF508 = target: T1, CFTR ΔF508 (Homo sapiens, UniProt P13569, DEL508-508); experiment: Chronic TECC assay, primary bronchial epithelial cells of CF patients homozygous for CFTR ΔF508 (corrector, co-corrector and potentiator); conditions: chronic TECC; for % Activity at 3 μM (AUC**): test compound at 3 μM
T1 construct: bronchial epithelial cells isolated from CF patients homozygous for the CFTR ΔF508 mutation; McGill University; Asterand; University of North Carolina hAEC-CF; host or cells: primary human bronchial epithelial cells from CF patients homozygous for ΔF508, differentiated at air-liquid interface
How it was run: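 Primary bronchial epithelial cells from ΔF508-homozygous CF patients on collagen IV-coated Transwells were chronically treated with test compound plus corrector and potentiator, which were re-added before recording. Ieq was derived from PD and Rt in NaCl-Ringer, pH 7.4, at 37° C, with apical amiloride and bilateral forskolin, recorded every 2 min over 20 min. Ieq increase was normalized to controls, and EC50 was taken from per-well concentrations.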

ΔF508-CFTR [1] = target: T2, ΔF508-CFTR (Homo sapiens, UniProt P13569, DEL508-508); experiment: CFTR cell surface levels using HRP-tagged ΔF508-CFTR expressing CFBE cells, in the presence of a co-corrector; conditions: HRP-tagged ΔF508-CFTR CFBE cells, in the presence of 3 μM co-corrector; for EC50: read-out: EC50
T2 construct: host or cells: CFBE41o-, doxycycline-inducible
How it was run: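 Chemiluminescent read-out of surface HRP (15 min, dark) after PBS washes. Activity is normalized as 100×(sample−DMSO)/(3 μM co-corrector alone−DMSO).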

ΔF508-CFTR [2] = target: T2, ΔF508-CFTR; experiment: CFTR cell surface levels using HRP-tagged ΔF508-CFTR expressing CFBE cells, intrinsic corrector capacity; set-up: % Activation: concentration or dose not given beside the values; conditions: HRP-tagged ΔF508-CFTR expressing CFBE41o- cells, compound alone (intrinsic corrector capacity), 20 hours at 33° C.; for EC50: read-out: EC50
How it was run: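 Read-out: chemiluminescent HRP activity of ECL4-HRP-tagged ΔF508-CFTR at the cell surface, 15 min substrate in dark. Normalized as 100×(sample−DMSO)/(positive control−DMSO).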

[3] = test compound at 1 μM, AUC = full area under the curve upon forskolin stimulation
[4] = AUC = full area under the curve upon forskolin stimulation
[5] = AUC = full area under the curve upon forskolin stimulation, read-out: EC50 (nM) (AUC**)

T2 sequence (P13569 with tags, fused parts or gaps DEL508-508): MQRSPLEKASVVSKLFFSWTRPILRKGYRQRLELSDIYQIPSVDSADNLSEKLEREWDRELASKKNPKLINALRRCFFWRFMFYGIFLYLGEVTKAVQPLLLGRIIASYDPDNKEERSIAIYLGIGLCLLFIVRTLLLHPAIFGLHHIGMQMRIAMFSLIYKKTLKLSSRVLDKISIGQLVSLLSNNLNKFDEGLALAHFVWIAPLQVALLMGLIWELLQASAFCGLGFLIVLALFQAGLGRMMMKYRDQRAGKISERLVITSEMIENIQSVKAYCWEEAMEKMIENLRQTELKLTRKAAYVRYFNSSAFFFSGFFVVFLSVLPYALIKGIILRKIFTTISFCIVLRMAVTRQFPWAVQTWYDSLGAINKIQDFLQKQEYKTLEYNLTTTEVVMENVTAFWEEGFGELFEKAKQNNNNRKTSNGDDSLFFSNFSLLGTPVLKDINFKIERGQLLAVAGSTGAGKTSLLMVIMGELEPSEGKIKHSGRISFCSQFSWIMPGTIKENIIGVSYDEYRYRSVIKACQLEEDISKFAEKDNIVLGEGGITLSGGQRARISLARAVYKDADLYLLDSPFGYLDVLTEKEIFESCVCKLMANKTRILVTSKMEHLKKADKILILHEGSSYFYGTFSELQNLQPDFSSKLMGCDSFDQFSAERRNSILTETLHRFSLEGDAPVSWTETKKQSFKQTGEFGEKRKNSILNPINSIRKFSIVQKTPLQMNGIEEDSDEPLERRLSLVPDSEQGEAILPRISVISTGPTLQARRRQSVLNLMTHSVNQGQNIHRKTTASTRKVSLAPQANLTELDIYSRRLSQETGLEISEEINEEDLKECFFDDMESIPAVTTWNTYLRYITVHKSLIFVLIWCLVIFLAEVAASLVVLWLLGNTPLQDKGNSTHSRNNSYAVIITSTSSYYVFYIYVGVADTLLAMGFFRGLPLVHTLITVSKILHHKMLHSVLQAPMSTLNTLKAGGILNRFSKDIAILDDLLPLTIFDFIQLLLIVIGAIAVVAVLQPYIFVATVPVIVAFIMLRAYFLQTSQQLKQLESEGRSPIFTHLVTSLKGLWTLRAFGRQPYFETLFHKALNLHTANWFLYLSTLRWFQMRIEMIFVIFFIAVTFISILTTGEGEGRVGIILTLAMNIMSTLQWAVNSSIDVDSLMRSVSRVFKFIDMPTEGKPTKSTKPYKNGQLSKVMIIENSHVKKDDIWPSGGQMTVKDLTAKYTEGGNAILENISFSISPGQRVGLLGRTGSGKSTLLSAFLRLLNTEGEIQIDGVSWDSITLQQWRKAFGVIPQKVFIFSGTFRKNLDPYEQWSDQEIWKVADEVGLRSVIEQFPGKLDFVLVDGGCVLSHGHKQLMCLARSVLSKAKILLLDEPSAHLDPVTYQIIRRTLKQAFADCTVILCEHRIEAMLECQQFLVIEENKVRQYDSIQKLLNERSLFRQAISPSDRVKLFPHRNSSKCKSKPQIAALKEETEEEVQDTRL
T1 sequence (P13569 with tags, fused parts or gaps DEL508-508): as above

SMILES	% Activity at 1 μM (AUC**) (CFTR ΔF508; [3])	% Activation (ΔF508-CFTR [1])	EC50 (ΔF508-CFTR [1])	% Activation (ΔF508-CFTR [2])	EC50 (ΔF508-CFTR [2])	% Activity at 3 μM (AUC**) (CFTR ΔF508; [4])	EC50 (CFTR ΔF508; Ieq = calculations based on the maximum current, read-out: EC50 (nM) (Ieq*))	% Activity at 1 μM (Ieq*) (CFTR ΔF508; test compound at 1 μM, Ieq = calculations based on the maximum current)	EC50 (CFTR ΔF508; [5])
CN1CCCCC1CCOc1cc(C(=O)NS(C)(=O)=O)nc2c1c(C1CCC1)nn2-c1ccccc1 (stereo not drawn) [Compound 323, 3-cyclobutyl-N-(methanesulfonyl)-4-[2-(1-methylpiperidin-2-yl)ethoxy]-1-phenyl-1H-pyrazolo[3,4-b]pyridine-6-carboxamide]	217.91%	292.85%	0.372 µM	144.6%	1.37 µM	–	–	–	–
CC(C)N1CCC(c2cc(C(=O)NS(C)(=O)=O)nc3c2c(C2CCC2)nn3-c2ccc(F)cc2)CC1 [Compound 611, 3-cyclobutyl-1-(4-fluorophenyl)-N-(methanesulfonyl)-4-[1-(propan-2-yl)piperidin-4-yl]-1H-pyrazolo[3,4-b]pyridine-6-carboxamide]	–	236.7%	2.62 µM	77.39%	3.33 µM	176.7495%	–	–	–
CC(C)c1nn(-c2cccc(N3CCOCC3)n2)c2nc(C(=O)NS(C)(=O)=O)cc(-c3ccc(N4CCOCC4)cc3)c12 [Compound 128, N-(methanesulfonyl)-4-[4-(morpholin-4-yl)phenyl]-1-[6-(morpholin-4-yl)pyridin-2-yl]-3-(propan-2-yl)-1H-pyrazolo[3,4-b]pyridine-6-carboxamide]	–	529.57%	0.252 µM	357.47%	0.516 µM	–	< 30 nM	235%	–
COCCS(=O)(=O)NC(=O)c1cc(N2CCC(N3CCOCC3)CC2)c2c(C3CCC3)nn(-c3ccc(F)cc3)c2n1 [Compound 407, 3-cyclobutyl-1-(4-fluorophenyl)-N-(2-methoxyethanesulfonyl)-4-[4-(morpholin-4-yl)piperidin-1-yl]-1H-pyrazolo[3,4-b]pyridine-6-carboxamide]	310%	494.15%	0.124 µM	331.45%	0.497 µM	–	–	–	48.9 nM
COCC1CCN(c2cc(C(=O)NS(C)(=O)=O)nc3c2c(C(C)C)nn3-c2ccc(F)cc2)CC1 [Compound 168, 1-(4-fluorophenyl)-N-(methanesulfonyl)-4-[4-(methoxymethyl)piperidin-1-yl]-3-(propan-2-yl)-1H-pyrazolo[3,4-b]pyridine-6-carboxamide]	282.45%	581.55%	0.41 µM	399.2%	0.338 µM	–	–	–	38.2 nM
COC1CCN(c2cc(C(=O)NS(C)(=O)=O)nc3c2c(C(C)C)nn3-c2ccnc(N3CCOCC3)c2)CC1 [Compound 187, N-(methanesulfonyl)-4-(4-methoxypiperidin-1-yl)-1-[2-(morpholin-4-yl)pyridin-4-yl]-3-(propan-2-yl)-1H-pyrazolo[3,4-b]pyridine-6-carboxamide]	180%	308.87%	0.0693 µM	160%	0.223 µM	–	–	–	> 1000 nM
COCCS(=O)(=O)NC(=O)c1cc(-c2ccc(N3CCOCC3)cc2)c2c(OC(C)C)nn(-c3ccccc3)c2n1 [Compound 226, N-(2-methoxyethanesulfonyl)-4-[4-(morpholin-4-yl)phenyl]-1-phenyl-3-[(propan-2-yl)oxy]-1H-pyrazolo[3,4-b]pyridine-6-carboxamide]	530%	392.95%	0.386 µM	206.7%	0.445 µM	–	–	–	56 nM
O=C(NS(=O)(=O)C1CCOC1)c1cc(N2CCC(N3CCOCC3)CC2)c2c(C3CCC3)nn(-c3ccc(F)cc3)c2n1 (stereo not drawn) [Compound 429, 3-cyclobutyl-1-(4-fluorophenyl)-4-[4-(morpholin-4-yl)piperidin-1-yl]-N-(oxolane-3-sulfonyl)-1H-pyrazolo[3,4-b]pyridine-6-carboxamide]	180%	422.8%	0.205 µM	252.1%	0.378 µM	–	–	–	83.8 nM
COC(=O)N1CCC(COc2cc(C(=O)NS(C)(=O)=O)nc3c2c(C(C)C)nn3-c2ccc(F)cc2)CC1 [Compound 322, methyl 4-({[1-(4-fluorophenyl)-6-[(methanesulfonyl)carbamoyl]-3-(propan-2-yl)-1H-pyrazolo[3,4-b]pyridin-4-yl]oxy}methyl)piperidine-1-carboxylate]	440.86%	342.75%	0.0614 µM	158.25%	0.128 µM	–	–	–	–
COC1CN(S(=O)(=O)NC(=O)c2cc(N3CCC(N4CCOCC4)CC3)c3c(C4CCC4)nn(-c4ccc(F)cc4)c3n2)C1 [Compound 484, 3-cyclobutyl-1-(4-fluorophenyl)-N-(3-methoxyazetidine-1-sulfonyl)-4-[4-(morpholin-4-yl)piperidin-1-yl]-1H-pyrazolo[3,4-b]pyridine-6-carboxamide]	380%	485.6%	0.142 µM	216.9%	0.124 µM	–	–	–	–
CN(C)S(=O)(=O)NC(=O)c1cc(N2CCC(N3CC(C#N)C3)CC2)c2c(C3CCC3)nn(-c3ccc(F)cc3)c2n1 [Compound 523, 4-[4-(3-cyanoazetidin-1-yl)piperidin-1-yl]-3-cyclobutyl-N-(dimethylsulfamoyl)-1-(4-fluorophenyl)-1H-pyrazolo[3,4-b]pyridine-6-carboxamide]	–	451.33%	0.1 µM	236.53%	0.124 µM	460.2177%	–	–	–
CC(C)Oc1nn(C2CCCCC2)c2nc(C(=O)NS(C)(=O)=O)cc(-c3ccc(CN4CCN(C5CC5)CC4)cc3)c12 [Compound 597, 1-cyclohexyl-4-{4-[(4-cyclopropylpiperazin-1-yl)methyl]phenyl}-N-(methanesulfonyl)-3-[(propan-2-yl)oxy]-1H-pyrazolo[3,4-b]pyridine-6-carboxamide]	263.3333%	433.93%	0.111 µM	214.3%	0.13 µM	–	–	–	–
COC1CCN(c2cc(C(=O)NS(=O)(=O)C3CCOCC3)nc3c2c(C2CCC2)nn3-c2ccccc2)CC1 [Compound 207, 3-cyclobutyl-4-(4-methoxypiperidin-1-yl)-N-(oxane-4-sulfonyl)-1-phenyl-1H-pyrazolo[3,4-b]pyridine-6-carboxamide]	441.31%	284.87%	0.175 µM	141.93%	0.34 µM	–	–	–	–
CS(=O)(=O)NC(=O)c1cc(C2CCC(N3CCOCC3)CC2)c2c(C3CCC3)nn(-c3ccccc3)c2n1 (stereo not drawn) [Compound 648, 3-cyclobutyl-N-(methanesulfonyl)-4-[4-(morpholin-4-yl)cyclohexyl]-1-phenyl-1H-pyrazolo[3,4-b]pyridine-6-carboxamide]	366.0679%	288.85%	0.11 µM	109.65%	0.316 µM	–	–	–	–
CS(=O)(=O)NC(=O)c1cc(OCCC2CCOCC2)c2c(C3CCC3)nn(-c3ccccc3)c2n1 [Compound 198, 3-cyclobutyl-N-(methanesulfonyl)-4-[2-(oxan-4-yl)ethoxy]-1-phenyl-1H-pyrazolo[3,4-b]pyridine-6-carboxamide]	477.39%	321.57%	0.466 µM	135.73%	0.633 µM	–	–	–	–
